Data from ChEMBL document CHEMBL5465560, “Selectivity Literature for EUbOPEN Chemogenomic Library” (2024).
Each block holds one molecule with its values, some of them ahead of it.

Key:
[1] = molecular target: Serine/threonine-protein kinase WNK1 (Homo sapiens) (UniProt Q9H4A3); assay: Selectivity interaction (Ambit KINOMEscan and KiNATiv profiling in Jurkat cells) EUB0000090b WNK1; format: cell-based; settings: at 1 µM
[2] = molecular target: Serine/threonine-protein kinase MARK2 (Homo sapiens) (UniProt Q7KZI7); assay: Selectivity interaction (ActivX KiNativ screen (kinase selectivity in THP-1 cell lysates)) EUB0000639a MARK2; format: subcellular; settings: lysate, at 0.01 µM
[3] = molecular target: T1, Calcium/calmodulin-dependent protein kinase type IV (Homo sapiens) (UniProt Q16566); assay: Selectivity interaction (ActivX KiNativ screen (kinase selectivity in THP-1 cell lysates)) EUB0000639a CAMK4; format: subcellular; settings: lysate
T1 sequence (whole entry): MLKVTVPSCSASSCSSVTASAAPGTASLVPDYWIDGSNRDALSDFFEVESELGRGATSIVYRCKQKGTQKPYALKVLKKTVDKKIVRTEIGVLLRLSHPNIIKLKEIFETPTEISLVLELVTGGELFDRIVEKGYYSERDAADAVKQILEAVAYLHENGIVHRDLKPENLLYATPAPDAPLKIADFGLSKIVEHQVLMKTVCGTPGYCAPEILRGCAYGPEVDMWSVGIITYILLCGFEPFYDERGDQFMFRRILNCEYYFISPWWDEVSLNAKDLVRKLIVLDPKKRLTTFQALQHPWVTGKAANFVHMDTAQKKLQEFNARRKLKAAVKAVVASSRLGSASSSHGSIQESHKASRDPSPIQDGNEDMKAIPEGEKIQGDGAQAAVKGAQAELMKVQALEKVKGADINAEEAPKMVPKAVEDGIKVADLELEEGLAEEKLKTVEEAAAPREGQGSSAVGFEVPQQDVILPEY

[4] = molecular target: Phosphatidylinositol 3-kinase catalytic subunit type 3 (Homo sapiens, UniProt Q8NEB9); assay: Selectivity interaction (ActivX KiNativ screen (kinase selectivity in THP-1 cell lysates)) EUB0000639a PIK3C3; format: subcellular; settings: lysate, at 1 µM
[5] = molecular target: T2, Tyrosine-protein kinase Tec (Homo sapiens) (UniProt P42680); assay: Selectivity interaction (ActivX KiNativ screen (kinase selectivity in THP-1 cell lysates)) EUB0000639a TEC; format: subcellular; settings: lysate, at 0.2 µM
T2 sequence (whole entry): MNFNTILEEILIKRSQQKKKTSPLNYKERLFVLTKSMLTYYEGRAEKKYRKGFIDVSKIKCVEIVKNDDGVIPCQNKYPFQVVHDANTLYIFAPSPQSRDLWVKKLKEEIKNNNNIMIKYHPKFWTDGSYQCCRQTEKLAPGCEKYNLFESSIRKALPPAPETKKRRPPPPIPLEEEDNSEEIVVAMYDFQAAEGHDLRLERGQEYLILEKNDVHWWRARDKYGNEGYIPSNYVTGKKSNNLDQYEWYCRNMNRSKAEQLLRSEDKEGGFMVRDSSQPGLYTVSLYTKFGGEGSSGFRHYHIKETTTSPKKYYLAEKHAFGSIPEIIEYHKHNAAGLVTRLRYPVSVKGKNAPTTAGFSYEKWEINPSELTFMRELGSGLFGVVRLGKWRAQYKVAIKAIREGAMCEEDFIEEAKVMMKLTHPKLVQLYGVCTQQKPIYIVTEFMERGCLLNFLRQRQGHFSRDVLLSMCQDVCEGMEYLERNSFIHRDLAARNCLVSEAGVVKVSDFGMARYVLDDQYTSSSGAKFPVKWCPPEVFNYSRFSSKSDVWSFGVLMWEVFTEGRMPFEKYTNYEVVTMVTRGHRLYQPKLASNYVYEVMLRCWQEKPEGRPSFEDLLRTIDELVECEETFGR

[6] = molecular target: T3, Serine/threonine-protein kinase BRSK2 (Homo sapiens) (UniProt Q8IWQ3); settings: at 10 µM
T3 sequence (whole entry): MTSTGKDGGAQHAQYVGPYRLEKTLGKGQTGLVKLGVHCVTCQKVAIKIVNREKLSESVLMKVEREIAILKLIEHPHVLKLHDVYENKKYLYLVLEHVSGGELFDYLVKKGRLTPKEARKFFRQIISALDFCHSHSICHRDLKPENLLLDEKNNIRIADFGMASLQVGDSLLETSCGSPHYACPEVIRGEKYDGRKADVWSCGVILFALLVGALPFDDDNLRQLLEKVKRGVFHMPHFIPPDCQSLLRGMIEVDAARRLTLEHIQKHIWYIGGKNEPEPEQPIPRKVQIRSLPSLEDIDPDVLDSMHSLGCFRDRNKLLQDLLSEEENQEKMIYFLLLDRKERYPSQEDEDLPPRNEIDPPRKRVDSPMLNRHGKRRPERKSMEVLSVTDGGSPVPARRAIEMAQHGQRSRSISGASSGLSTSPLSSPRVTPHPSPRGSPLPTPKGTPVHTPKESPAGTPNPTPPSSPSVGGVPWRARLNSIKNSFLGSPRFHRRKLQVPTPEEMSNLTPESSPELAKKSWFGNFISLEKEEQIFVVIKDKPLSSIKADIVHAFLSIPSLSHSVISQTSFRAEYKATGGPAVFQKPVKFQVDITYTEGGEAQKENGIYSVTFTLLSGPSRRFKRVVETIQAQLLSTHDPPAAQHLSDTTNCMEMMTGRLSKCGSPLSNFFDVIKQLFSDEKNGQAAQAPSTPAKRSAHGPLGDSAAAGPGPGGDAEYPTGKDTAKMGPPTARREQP

[7] = molecular target: Phosphatidylinositol 4,5-bisphosphate 3-kinase catalytic subunit alpha isoform (Homo sapiens) (UniProt P42336); assay: Selectivity interaction (Kinase panel (Eurofins)) EUB0001564a PIK3CA; settings: at 1 µM
[8] = molecular target: Mitogen-activated protein kinase 1 (Homo sapiens, UniProt P28482); assay: Selectivity interaction (KinomeScan (DiscoverX)) EUB0000655a MAPK1; settings: at 10 µM
[9] = molecular target: T4, Membrane-associated tyrosine- and threonine-specific cdc2-inhibitory kinase (Homo sapiens) (UniProt Q99640); assay: Selectivity interaction (Kinase panel (DSF assay)) EUB0001559a PKMYT1
T4 sequence (whole entry): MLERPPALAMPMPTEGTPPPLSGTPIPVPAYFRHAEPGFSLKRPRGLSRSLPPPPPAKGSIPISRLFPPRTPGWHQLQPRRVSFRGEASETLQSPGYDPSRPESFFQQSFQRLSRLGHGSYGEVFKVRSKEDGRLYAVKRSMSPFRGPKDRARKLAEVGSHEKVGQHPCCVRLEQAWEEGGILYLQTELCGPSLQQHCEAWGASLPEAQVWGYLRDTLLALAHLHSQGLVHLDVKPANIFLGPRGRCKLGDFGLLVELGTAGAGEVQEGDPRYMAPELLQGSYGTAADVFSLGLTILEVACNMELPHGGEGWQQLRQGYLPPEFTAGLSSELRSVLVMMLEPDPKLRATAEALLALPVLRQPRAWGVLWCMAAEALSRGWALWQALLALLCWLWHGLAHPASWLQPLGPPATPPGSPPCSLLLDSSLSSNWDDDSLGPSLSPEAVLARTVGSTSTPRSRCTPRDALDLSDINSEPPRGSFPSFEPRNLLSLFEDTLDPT

Sequence of Serine/threonine-protein kinase MARK2 (Homo sapiens) (Q7KZI7 whole entry): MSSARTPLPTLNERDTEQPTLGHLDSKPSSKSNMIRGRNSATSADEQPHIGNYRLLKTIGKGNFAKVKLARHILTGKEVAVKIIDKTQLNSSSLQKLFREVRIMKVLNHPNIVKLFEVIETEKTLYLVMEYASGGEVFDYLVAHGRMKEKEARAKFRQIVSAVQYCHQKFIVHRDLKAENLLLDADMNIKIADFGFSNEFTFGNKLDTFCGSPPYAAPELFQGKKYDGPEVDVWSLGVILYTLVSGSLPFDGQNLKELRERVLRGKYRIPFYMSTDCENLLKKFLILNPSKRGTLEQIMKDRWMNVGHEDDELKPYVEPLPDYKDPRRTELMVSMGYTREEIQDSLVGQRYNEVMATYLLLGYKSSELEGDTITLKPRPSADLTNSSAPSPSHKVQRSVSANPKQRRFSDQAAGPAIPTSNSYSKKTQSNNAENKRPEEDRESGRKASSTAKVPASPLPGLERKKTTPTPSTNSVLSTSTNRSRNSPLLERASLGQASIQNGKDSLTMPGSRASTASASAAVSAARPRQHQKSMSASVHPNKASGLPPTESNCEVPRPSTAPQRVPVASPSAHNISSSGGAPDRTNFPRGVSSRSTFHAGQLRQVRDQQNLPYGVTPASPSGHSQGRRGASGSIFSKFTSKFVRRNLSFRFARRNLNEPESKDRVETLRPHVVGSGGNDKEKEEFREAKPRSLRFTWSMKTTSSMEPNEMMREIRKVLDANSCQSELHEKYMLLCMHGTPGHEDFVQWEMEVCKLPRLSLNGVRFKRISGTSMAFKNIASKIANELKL
Sequence of Phosphatidylinositol 4,5-bisphosphate 3-kinase catalytic subunit alpha isoform (Homo sapiens) (P42336 whole entry, canonical isoform): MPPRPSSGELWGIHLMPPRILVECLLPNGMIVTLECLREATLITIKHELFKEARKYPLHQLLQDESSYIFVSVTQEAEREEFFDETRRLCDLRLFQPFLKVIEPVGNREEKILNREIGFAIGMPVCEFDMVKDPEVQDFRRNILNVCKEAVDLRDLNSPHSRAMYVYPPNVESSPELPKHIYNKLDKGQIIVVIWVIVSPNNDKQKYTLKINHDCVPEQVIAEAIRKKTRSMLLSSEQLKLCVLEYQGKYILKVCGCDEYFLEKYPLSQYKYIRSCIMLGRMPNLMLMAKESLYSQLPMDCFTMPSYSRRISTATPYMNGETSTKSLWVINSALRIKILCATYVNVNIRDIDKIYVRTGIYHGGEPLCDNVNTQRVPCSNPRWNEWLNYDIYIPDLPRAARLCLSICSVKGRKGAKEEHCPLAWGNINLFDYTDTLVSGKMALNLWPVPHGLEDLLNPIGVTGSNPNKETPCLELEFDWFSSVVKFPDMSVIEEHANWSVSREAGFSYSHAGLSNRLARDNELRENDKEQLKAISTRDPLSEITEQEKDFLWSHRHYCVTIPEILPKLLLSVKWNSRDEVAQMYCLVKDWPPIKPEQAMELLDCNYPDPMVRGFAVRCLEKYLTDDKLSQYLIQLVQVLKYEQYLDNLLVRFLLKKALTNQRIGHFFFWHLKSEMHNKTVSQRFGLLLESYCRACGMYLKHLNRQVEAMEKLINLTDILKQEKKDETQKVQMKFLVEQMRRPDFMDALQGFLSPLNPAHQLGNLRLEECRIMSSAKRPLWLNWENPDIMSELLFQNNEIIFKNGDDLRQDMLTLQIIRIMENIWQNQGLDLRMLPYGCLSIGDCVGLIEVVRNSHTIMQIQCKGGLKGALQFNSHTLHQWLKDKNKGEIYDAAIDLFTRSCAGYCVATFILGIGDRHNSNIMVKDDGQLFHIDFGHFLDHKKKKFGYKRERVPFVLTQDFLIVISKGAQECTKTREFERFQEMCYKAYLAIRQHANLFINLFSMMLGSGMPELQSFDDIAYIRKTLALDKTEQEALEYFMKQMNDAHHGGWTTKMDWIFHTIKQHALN
Sequence of Serine/threonine-protein kinase WNK1 (Homo sapiens) (Q9H4A3 whole entry, looked up): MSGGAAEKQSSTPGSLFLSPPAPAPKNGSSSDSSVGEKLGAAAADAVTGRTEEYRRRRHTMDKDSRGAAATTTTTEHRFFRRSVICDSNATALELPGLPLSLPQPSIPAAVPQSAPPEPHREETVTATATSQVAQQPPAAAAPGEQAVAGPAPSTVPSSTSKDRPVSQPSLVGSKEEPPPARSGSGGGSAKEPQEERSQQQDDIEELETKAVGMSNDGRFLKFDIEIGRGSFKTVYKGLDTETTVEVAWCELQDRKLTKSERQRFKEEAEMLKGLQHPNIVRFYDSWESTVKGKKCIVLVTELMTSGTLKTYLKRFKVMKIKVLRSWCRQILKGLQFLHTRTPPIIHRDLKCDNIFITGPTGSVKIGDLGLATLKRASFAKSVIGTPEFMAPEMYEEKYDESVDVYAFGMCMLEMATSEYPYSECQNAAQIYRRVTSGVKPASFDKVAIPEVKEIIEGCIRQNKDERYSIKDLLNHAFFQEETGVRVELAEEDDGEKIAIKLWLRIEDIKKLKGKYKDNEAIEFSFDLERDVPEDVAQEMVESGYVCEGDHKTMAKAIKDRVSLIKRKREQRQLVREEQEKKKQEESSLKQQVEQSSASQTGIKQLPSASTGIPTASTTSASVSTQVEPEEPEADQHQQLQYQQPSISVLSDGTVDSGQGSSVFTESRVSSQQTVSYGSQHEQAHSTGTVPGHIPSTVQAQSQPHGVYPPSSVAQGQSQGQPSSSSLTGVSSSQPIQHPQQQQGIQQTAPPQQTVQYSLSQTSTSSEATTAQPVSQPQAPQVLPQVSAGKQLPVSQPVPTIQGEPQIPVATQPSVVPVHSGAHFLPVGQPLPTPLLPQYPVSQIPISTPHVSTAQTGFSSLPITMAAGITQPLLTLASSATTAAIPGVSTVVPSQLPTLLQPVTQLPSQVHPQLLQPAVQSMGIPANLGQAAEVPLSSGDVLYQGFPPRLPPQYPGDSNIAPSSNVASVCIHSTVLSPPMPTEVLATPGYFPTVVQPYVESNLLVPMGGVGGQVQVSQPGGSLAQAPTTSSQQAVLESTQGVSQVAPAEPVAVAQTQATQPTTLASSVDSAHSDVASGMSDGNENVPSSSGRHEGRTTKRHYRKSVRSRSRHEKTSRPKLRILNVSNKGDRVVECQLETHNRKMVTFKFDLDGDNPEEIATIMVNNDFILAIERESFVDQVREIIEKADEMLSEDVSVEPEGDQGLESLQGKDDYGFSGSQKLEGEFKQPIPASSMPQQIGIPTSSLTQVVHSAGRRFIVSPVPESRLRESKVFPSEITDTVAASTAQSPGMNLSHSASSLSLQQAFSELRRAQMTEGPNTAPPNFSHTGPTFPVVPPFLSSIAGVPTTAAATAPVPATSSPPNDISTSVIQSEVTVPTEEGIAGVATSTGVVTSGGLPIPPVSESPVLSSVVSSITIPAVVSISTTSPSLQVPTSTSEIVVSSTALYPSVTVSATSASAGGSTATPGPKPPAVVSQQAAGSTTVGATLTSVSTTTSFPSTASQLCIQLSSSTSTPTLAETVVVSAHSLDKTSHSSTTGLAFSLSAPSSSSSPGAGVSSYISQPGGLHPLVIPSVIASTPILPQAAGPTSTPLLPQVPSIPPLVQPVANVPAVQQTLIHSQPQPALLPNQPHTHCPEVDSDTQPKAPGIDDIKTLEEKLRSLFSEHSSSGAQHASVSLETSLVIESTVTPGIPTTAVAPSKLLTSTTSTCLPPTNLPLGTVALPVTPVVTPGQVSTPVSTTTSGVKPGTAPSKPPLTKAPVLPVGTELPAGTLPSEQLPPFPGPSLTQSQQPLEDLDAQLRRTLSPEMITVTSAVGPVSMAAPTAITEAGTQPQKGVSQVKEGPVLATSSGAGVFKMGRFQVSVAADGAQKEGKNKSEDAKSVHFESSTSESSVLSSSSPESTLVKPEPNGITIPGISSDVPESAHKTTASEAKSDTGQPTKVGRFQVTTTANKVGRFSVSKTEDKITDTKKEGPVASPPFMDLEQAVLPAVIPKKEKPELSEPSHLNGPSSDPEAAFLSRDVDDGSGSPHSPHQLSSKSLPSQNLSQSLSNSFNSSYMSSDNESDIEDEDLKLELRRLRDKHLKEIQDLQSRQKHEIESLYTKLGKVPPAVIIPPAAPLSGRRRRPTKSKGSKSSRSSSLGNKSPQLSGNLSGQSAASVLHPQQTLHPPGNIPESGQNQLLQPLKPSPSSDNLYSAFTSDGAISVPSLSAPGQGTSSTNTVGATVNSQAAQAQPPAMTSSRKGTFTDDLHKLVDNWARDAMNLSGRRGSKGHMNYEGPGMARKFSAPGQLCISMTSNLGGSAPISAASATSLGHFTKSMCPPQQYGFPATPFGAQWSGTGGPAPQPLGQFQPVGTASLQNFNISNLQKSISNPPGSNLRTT
Sequence of Phosphatidylinositol 3-kinase catalytic subunit type 3 (Q8NEB9 whole entry): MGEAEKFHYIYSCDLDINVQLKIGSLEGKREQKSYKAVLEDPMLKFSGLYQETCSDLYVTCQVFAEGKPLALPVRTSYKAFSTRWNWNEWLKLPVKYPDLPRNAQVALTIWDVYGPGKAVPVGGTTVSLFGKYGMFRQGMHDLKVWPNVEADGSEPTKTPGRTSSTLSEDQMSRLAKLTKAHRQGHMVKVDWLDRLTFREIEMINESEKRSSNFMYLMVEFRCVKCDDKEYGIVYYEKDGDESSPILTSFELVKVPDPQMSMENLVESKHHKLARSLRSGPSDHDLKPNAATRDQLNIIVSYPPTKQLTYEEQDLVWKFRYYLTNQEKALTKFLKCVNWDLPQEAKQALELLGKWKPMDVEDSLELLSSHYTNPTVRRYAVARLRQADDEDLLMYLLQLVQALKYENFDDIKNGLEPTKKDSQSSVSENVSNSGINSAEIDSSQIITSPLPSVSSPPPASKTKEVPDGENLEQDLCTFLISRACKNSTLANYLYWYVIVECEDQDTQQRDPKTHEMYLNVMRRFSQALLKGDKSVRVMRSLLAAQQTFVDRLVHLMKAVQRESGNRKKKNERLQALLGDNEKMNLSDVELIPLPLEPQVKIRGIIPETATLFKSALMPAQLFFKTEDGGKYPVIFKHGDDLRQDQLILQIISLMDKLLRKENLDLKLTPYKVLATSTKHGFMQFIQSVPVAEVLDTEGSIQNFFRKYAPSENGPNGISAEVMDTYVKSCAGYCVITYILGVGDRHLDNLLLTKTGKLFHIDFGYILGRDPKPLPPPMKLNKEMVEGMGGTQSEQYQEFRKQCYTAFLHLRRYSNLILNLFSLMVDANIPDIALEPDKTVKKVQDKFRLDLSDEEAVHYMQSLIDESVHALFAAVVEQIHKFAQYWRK

Compound: CN(C)C/C=C/C(=O)Nc1ccc(C(=O)N2CCCC(Nc3ncc(Cl)c(-c4c[nH]c5ccccc45)n3)C2)cc1 (stereo not drawn)
% of control [1]: 80%

Compound: CC[C@@H](Nc1c(C#N)c(-c2ccc(-c3cccc(C)c3F)cc2)nc2cnccc12)C(=O)O [BAY-091]
% of inhibition [7]: 30.9%

Compound: CN(C)CCOc1ccc(-c2nc(-c3ccncc3)c(-c3ccc4c(c3)CC/C4=N\O)[nH]2)cc1
% of control [8]: 100%

Continued, values first:

% of inhibition [2]: 2.3% | % of inhibition ([3]; at 0.01 µM): 25.8% | % of inhibition ([3]; at 0.04 µM): 19.1% | % of inhibition ([3]; at 0.2 µM): -4.7% | % of inhibition ([3]; at 1 µM): 11.2% | % of inhibition ([3]; at 5 µM): 18.6% | % of inhibition [4]: -13.7% | % of inhibition [5]: -52.3%
Compound: CC[C@@H]1[C@H](F)C(=O)N[C@@H]1COc1nccc2cc(C(N)=O)c(OC)cc12 [ZIMLOVISERTIB]

% of control [6]: 100%
Compound: CCN(CC)CCCCNc1ncc2cc(-c3cc(OC)cc(OC)c3)c(NC(=O)NC(C)(C)C)nc2n1

dTM [9]: 0.4 K
Compound: CN(C(=O)c1cnn2cccnc12)c1cc2c(cc1N1CCOCC1)C(=O)N(C[C@@H](F)C(C)(C)O)C2
